These results are taken from patent US10525110B2, “Methods for inducing partial apoptosis using caspase polypeptides” (Bellicum Pharmaceuticals, Inc., priority 2013, dated 2020).

Data set [1] concerns iCasp9M-transduced EBV-CTLs. Put plainly: CID-induced elimination of GFP+ iCasp9M-transduced EBV-CTLs (flow cytometry for GFP). The format is cell-based, human. (In general: In flow cytometry, cells or beads pass a laser one at a time.)
Data set [2] relates to F-Casp9M.I.GFPhigh-transduced T cells. Put plainly: Annexin-V/7-AAD staining of GFPhigh-selected iCasp9M-transduced T cells after CID. The format is cell-based, human.
The subject of data set [3] is iCasp9M.IRES.IL-12-transduced cells. Put plainly: IL-12 ELISA of supernatant of iCasp9M.I.IL-12-transduced EBV-CTLs. The format is cell-based, human. Particulars: 10 nM CID; detection limit 8 pg/mL. The method, then:
The concentration of interferon-γ (IFN-γ), IL-2, IL-4, IL-5, IL-10, and tumor necrosis factor-α (TNFα) in CTL culture supernatants was measured using the Human Th1/Th2 cytokine cytometric Bead Array (BD Pharmingen) and the concentration of IL-12 in the culture supernatants was measured by enzyme-linked immunosorbent assay (ELISA; R&D Systems, Minneapolis, Minn.) according to the instructions of the manufacturer.
To determine whether iCasp9M could effectively destroy cells genetically modified to express an active transgene product, the ability of iCasp9M to eliminate EBV-CTLs stably expressing IL-12 was measured. While IL-12 was undetectable in the supernatant of nontransduced and iCasp9M.IRES.GFP-transduced CTLs, the supernatant of iCasp9M.IRES.IL-12-transduced cells contained 324 pg/mL to 762 pg/mL IL-12. After administration of 10 nM CID, however, the IL-12 in the supernatant fell to undetectable levels (<8 pg/mL). Thus, even without prior sorting for high transgene expressing cells, activation of iCasp9M is sufficient to completely eliminate all T cells producing biologically relevant levels of IL-12 (FIG. 6). The function of iCasp9M when coexpressed with IL-12 is graphically represented by bar graphs in FIG. 6. […] Three days after a second antigenic stimulation, the levels of IL-12 in the culture supernatant were measured by IL-12 ELISA (detection limit of this assay is 8 pg/mL). […]
In general terms: An ELISA detects its analyte on a solid surface through an enzyme-linked reagent.

In data set [4] the test system is gene-modified allodepleted cells. Put plainly: Induction of apoptosis with AP20187 in gene-modified allodepleted cells (annexin V/7-AAD). The format is cell-based, human. Here is the method:
Suicide gene functionality was assessed by adding a small molecule synthetic homodimerizer, AP20187 (Ariad Pharmaceuticals; Cambridge, Mass.), at 10 nM final concentration the day following CD19 immunomagnetic selection. Cells were stained with annexin V and 7-amino-actinomycin (7-AAD)(BD Pharmingen) at 24 hours and analyzed by flow cytometry. Cells negative for both annexin V and 7-AAD were considered viable, cells that were annexin V positive were apoptotic, and cells that were both annexin V and 7-AAD positive were necrotic. The percentage killing induced by dimerization was corrected for baseline viability as follows: Percentage killing=100%−(% Viability in AP20187-treated cells÷% Viability in non-treated cells).
Cells were maintained in T cell medium containing 50 U/ml IL-2 until 22 days after transduction. A portion of cells was reactivated on 24-well plates coated with […] OKT3 and 1 μg/ml anti-CD28 (Clone CD28.2, BD Pharmingen, San Jose, Calif.) for 48 to 72 hours. CD19 expression and suicide gene function in both reactivated and non-reactivated cells were measured on day 24 or 25 post transduction.
In some experiments, cells also were cultured for 3 weeks post transduction and stimulated with 30G-irradiated allogeneic PBMC at a responder:stimulator ratio of 1:1. After 4 days of co-culture, a portion of cells was treated with 10 nM AP20187. Killing was measured by annexin V/7-AAD staining at 24 hours, and the effect of dimerizer on bystander virus-specific T cells was assessed by pentamer analysis on AP20187-treated and untreated cells.

Data set [5] relates to differentiated progeny of human MSCs expressing iCasp9. Put plainly: Apoptosis of differentiated iCasp9-positive MSCs (TUNEL, cell density). The following applies: adipocytic differentiation, 50 nM CID, after 24 hours (from 584 cells/mm2). The format is cell-based. The method, then: Differentiated MSCs. Transduced MSCs were differentiated as presented above. At the end of the differentiation period, CID was added to the differentiation media at 50 nM. Cells were stained appropriately for the tissue being studied, as presented above, and a contrast stain (methylene azur or methylene blue) was used to evaluate the nuclear and cytoplasmic morphology. In parallel, tissues were processed for terminal deoxynucleotidyl-transferase dUTP nick end labeling (TUNEL) assay as per manufacturer instructions (In Situ Cell Death Detection Kit, Roche Diagnostics, Mannheim, Germany). For each time point, four random fields were photographed at a final magnification of 40× and the images were analyzed with ImageJ software version 1.43o (NIH, Bethesda, Md.). Cell density was calculated as the number of nuclei (DAPI positivity) per unit of surface area (in mm^2). The percentage of apoptotic cells was determined as the ratio of the number of nuclei with positive TUNEL signal (FITC positivity) to the total number of nuclei. Controls were maintained in culture without CID.
After culture in adipocytic differentiation media, iCasp9-positive cells gave rise to adipocytes. After exposure to 50 nM CID, progressive apoptosis was observed as evidenced by an increasing proportion of TUNEL-positive cells. […]

For data set [6], the system named is EBV-specific and CMV-specific T cells. Put plainly: Pentamer analysis of virus-specific T cells after AP20187 treatment of allostimulated cells. Particulars: 10 nM after 4 days reactivation with allogeneic PBMC. The format is cell-based, human.
Data set [7] has as its system T cells transduced with these inducible death molecules. Particulars: inducible Fas or FADD DED; cited from earlier work.
The mark [8] stands for this setting: representative example of 3 separate experiments.
[9] abbreviates: 10 nM, 24 hours, day following immunomagnetic selection.

Take `CC[C@H](C(=O)N1CCCC[C@H]1C(=O)O[C@H](CCc1ccc(OC)c(OC)c1)c1cccc(OCC(=O)NCC(CNC(=O)COc2cccc([C@@H](CCc3ccc(OC)c(OC)c3)OC(=O)[C@@H]3CCCCN3C(=O)[C@@H](CC)c3cc(OC)c(OC)c(OC)c3)c2)CN(C)C)c1)c1cc(OC)c(OC)c(OC)c1` [AP20187]: the “reduction in mean fluorescence intensity of GFP after CID” value in data set [1] (CTLs that survived CID treatment) came to 70%. In addition, the “further elimination of the surviving GFP+ T cells” value in data set [1] (antigenic stimulation followed by a second 10-nM dose of CID) was “No further elimination”. The “CID sufficient to obtain the maximal deletion effect” value in data set [1] (titration, F-Casp9M.I.GFPhigh, survival of GFP+ cells on day 7) amounted to 1 nM. Besides, the “GFP+ cells eliminated after a single 10-nM dose of CID” value in data set [1] (unselected iCasp9M-transduced CTLs, 5 different donors) is reported as 91.3%. Also, the “time to apoptotic characteristics (cell shrinkage and fragmentation) after CID administration” value in data set [2] (GFPhigh-selected cells) was at most 14 h. For the same molecule, in data set [2] (setting [8]), the “apoptotic phenotype (annexin V+, 7-AAD−)” value amounted to 64% and the “necrotic phenotype (annexin V+, 7-AAD+)” value came out at 32%. Moreover, the “IL-12 in the supernatant after CID” value in data set [3] is given as under 8 pg/mL. In data set [4] (setting [9]), the “AP20187-treated cells remaining viable” value was “about 5.5%±2.5” and the “Killing efficiency after correction for baseline viability” value was “about 92.9%±3.8”. Further, the killing efficiency in data set [4] (day 24 or 25, OKT3/aCD28-reactivated cells) is listed as ~84.6%±8.0. Besides, in data set [4] (day 24 post transduction, 10 nM), the “residual viability following treatment with AP20187” value stood at 19.6±5.6%. The “apoptosis / elimination of iCasp9-modified T cells after dimerizer (summary statement)” value in data set [4] (in vitro, listed as small-molecule dimerizer) is over 90%. For the same molecule, the “cell density after CID” value in data set [5] is reported as under 14 cells/mm2. In addition, the “effect on virus-specific T cells” value in data set [6] is on record as “spares (and thereby enriches) viral reactive subpopulations”. For the same molecule, the “transduced T cells undergoing apoptosis after administration of CID” value in data set [7] was “Up to 90%”.
